This passage reports IC50, Activity and inhibition in vivo results from ChEMBL document CHEMBL5661967, “Antitumor activity of HKI-272, an orally active, irreversible inhibitor of the HER-2 tyrosine kinase” (Cancer Res, 2004).

In one data set the test system is MDA-MB-435. Nature of the data set: Antiproliferative activity against human MDA-MB-435 cells measured after 2 days by sulforhodamine B assay. Format: functional, cell-based. As to conditions: MDA-MB-435, 48 h. A general note: The SRB assay estimates cell density from bound dye.
For data set [1], the system named is BT-474. Put plainly: Cell cycle arrest in human BT-474 cells assessed as accumulation of cells at G0-G1 phase at 0.2 nM measured after 12 to 16 hrs by propidium iodide staining based flow cytometry (reference value: 61%). The note with it: time 12-16 hrs. In kind it is functional. Background: In flow cytometry, cells or beads pass a laser one at a time.
Data set [2] is described as follows: Toxicity in human SK-OV-3 cells xenografted athymic nude mouse at 10 to 60 mg/kg, po administered daily via gavage for 20 days. Format: organism-based. As to conditions: in vivo, 480 h, dose 10-60 mg/kg, time 20 day.
The test system of data set [3] is BT-474. Put plainly: Cell cycle arrest in human BT-474 cells assessed as accumulation of cells at G0-G1 phase at 1 nM measured after 12 to 16 hrs by propidium iodide staining based flow cytometry (reference value: 61%). In kind it is functional. As to conditions: time 12-16 hrs.
Another data set relates to MDA-MB-361. Nature of the data set: Antiproliferative activity against human MDA-MB-361 cells measured after 2 days by sulforhodamine B assay. As to conditions: MDA-MB-361, 48 h. In kind it is functional, cell-based.
In data set [4] the target is Cyclin-dependent kinase 2/cyclin E1 (Homo sapiens, UniProt P24941). Put plainly: Inhibition of recombinant CDK2/cyclin E (unknown origin) using protein as substrate. In kind it is protein-complex assay.
Data set [5] deals with MAP kinase-activated protein kinase 2 (Homo sapiens, UniProt P49137). Nature of the data set: Inhibition of recombinant MK2 (unknown origin) using peptide as substrate.
Sequence of MAP kinase-activated protein kinase 2 (P49137 whole entry): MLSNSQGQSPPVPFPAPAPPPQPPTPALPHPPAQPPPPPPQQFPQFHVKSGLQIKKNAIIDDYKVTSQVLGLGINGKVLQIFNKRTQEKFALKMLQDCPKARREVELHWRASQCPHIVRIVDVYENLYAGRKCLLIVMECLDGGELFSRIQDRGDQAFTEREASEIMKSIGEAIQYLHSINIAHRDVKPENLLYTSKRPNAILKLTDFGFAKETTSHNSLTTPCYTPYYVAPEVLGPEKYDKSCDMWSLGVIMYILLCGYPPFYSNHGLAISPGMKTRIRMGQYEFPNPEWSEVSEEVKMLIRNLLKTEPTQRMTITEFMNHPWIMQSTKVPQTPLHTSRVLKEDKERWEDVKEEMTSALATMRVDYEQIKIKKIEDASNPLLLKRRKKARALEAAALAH
Data set [6] deals with BT-474. Nature of the data set: Antitumor activity against human BT-474 cells xenografted in athymic nude mouse assessed as tumor growth inhibition at 40 mg/kg, po administered daily for 20 days via gavage and measured on day 28 relative to control. As to conditions: BT-474, 672 h, time 28 day, read-out: TGI. Format: functional. On the technique in general: Xenograft models place foreign cells or tissue in a host animal.

In data set [7] the test system is A-431. Nature of the data set: Antitumor activity against human A-431 cells xenografted in athymic nude mouse assessed as tumor growth inhibition at 60 mg/kg, po administered daily for 10 days via gavage and measured on day 15 relative to control. In kind it is functional. As to conditions: A-431, 360 h, time 15 day, read-out: TGI.
The test system of data set [8] is BT-474. Put plainly: Cell cycle arrest in human BT-474 cells assessed as accumulation of cells at S phase at 1 nM measured after 12 to 16 hrs by propidium iodide staining based flow cytometry (reference value: 21%). In kind it is functional. As to conditions: time 12-16 hrs.
In data set [9] the test system is A-431. Put plainly: Antitumor activity against human A-431 cells xenografted in athymic nude mouse assessed as tumor growth inhibition at 20 mg/kg, po administered daily for 10 days via gavage and measured on day 15 relative to control. Format: functional. As to conditions: A-431, 360 h, time 15 day, read-out: TGI.
A short description of data set [10]: Toxicity in mouse 3T3 cells transfected with HER-2 oncogene implanted athymic nude mouse assessed as body weight loss at 20 to 80 mg/kg, po administered daily for 10 days. In kind it is organism-based, NIH3T3. As to conditions: in vivo, 240 h, dose 20-80 mg/kg, time 10 day.
Another data set relates to NIH3T3. Nature of the data set: Antitumor activity against mouse 3T3 cells transfected with HER-2 oncogene implanted in athymic nude mouse assessed as tumor growth inhibition at 80 mg/kg, po administered daily for 10 days via gavage and measured on day 21 relative to control. The note with it: NIH3T3, 504 h, time 21 day, read-out: TGI. In kind it is functional.
Data set [11] relates to BT-474. Put plainly: Antitumor activity against human BT-474 cells xenografted in athymic nude mouse assessed as tumor growth inhibition at 40 mg/kg, po administered daily for 20 days via gavage and measured on day 21 relative to control. The note with it: BT-474, 504 h, time 21 day, read-out: TGI. In kind it is functional.
The nature of data set [12]: In vivo inhibition of HER2 autophosphorylation in human BT-474 cells xenografted athymic nude mouse at 40 mg/kg, po administered as single dose via gavage measured after 24 hrs by immunoblot analysis relative to control. In kind it is functional.

As for `COc1cc2ncc(C#N)c(Nc3ccc(OCc4ccccn4)c(Cl)c3)c2cc1NC(=O)/C=C/CN(C)C`, the half-maximal inhibitory concentration (IC50) (as a rule, the midpoint of a concentration-inhibition curve) with MDA-MB-435 was 960 nM; in the data set on MDA-MB-361 it was 190 nM; in data set [4] it was more than 18000 nM; in data set [5] it was more than 45000 nM. The Activity in the data set with BT-474 [1] is reported as 63%; in data set [2] it was “Non-Toxic”; with BT-474 [3] it was 69%; in the data set with BT-474 [8], 10%; in [10] it was “Non-Toxic”. The inhibition in vivo at 40 mg/kg is 93% in the data set with BT-474 [6], 88% with BT-474 [11] and 43% in data set [12]. Moreover, in the data set on A-431 [7], the inhibition in vivo at 60 mg/kg stood at 76%. Also, the inhibition in vivo at 20 mg/kg in the data set on A-431 [9] was 44%. The inhibition in vivo at 80 mg/kg in the data set with NIH3T3 is 98%.
